Data published in publication PMC11237924, “A neutral invertase controls cell division besides hydrolysis of sucrose for nutrition during germination and seed setting in rice” (iScience, 2024).
Substitutions are numbered along the chain they refer to.

T1: OsNIN8 (MBP-OsNIN8), neutral invertase 8 (Oryza sativa, UniProt Q69T31, D275A/E501A)
T1 construct: gene CINV1; N-terminal MBP fusion (pETMALc-H), tag kept, expressed in E. coli BL21(DE3), amylose resin purified
T1 sequence (Q69T31 1-562 D275A/E501A): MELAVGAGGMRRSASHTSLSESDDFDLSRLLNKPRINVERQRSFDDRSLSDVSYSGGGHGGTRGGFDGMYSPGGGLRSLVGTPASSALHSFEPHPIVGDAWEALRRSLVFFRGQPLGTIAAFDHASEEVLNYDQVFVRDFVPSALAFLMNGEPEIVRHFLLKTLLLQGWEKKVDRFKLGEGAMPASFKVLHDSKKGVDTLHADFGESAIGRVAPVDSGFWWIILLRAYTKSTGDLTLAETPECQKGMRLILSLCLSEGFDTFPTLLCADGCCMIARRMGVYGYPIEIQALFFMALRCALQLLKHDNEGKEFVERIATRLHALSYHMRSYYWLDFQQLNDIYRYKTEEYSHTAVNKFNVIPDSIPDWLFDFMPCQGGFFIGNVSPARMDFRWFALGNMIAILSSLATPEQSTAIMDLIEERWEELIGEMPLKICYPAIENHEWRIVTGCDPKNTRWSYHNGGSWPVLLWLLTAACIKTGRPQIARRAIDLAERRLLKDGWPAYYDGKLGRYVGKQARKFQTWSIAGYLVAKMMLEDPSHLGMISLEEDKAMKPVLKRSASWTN

T2: OsNIN8 (MBP-OsNIN8), neutral invertase 8 (Oryza sativa, UniProt Q69T31, G461R)
T2 construct: gene CINV1; N-terminal MBP fusion (pETMALc-H), tag kept, expressed in E. coli BL21(DE3), amylose resin purified
T2 sequence (Q69T31 1-562 G461R): T1 sequence (Q69T31 1-562 D275A/E501A) with A275D, G461R, A501E

T3: OsNIN8 (MBP-OsNIN8), neutral invertase 8 (Oryza sativa, UniProt Q69T31, E501A)
T3 construct: gene CINV1; N-terminal MBP fusion (pETMALc-H), tag kept, expressed in E. coli BL21(DE3), amylose resin purified
T3 sequence (Q69T31 1-562 E501A): T1 sequence (Q69T31 1-562 D275A/E501A) with A275D

T4: OsNIN8 (MBP-OsNIN8), neutral invertase 8 (Oryza sativa, UniProt Q69T31, D275A)
T4 construct: gene CINV1; N-terminal MBP fusion (pETMALc-H), tag kept, expressed in E. coli BL21(DE3), amylose resin purified
T4 sequence (Q69T31 1-562 D275A): T1 sequence (Q69T31 1-562 D275A/E501A) with A501E

B1: OsNIN8 (MBP-OsNIN8), neutral invertase 8 (Oryza sativa Japonica Group) (protein)
chain: T1 sequence (Q69T31 1-562 D275A/E501A) with A275D, A501E
notes: N-terminal MBP fusion (pETMALc-H), tag kept, expressed in E. coli BL21(DE3), amylose resin purified

Columns and labels:
[1] = biological target: T1, OsNIN8 (MBP-OsNIN8), neutral invertase 8; test: ITC incremental titration; assay type: binding; details: 25 °C, 0.1 mM protein, 10 mM sucrose in syringe; catalytic-residue mutant
[2] = biological target: T2, OsNIN8 (MBP-OsNIN8), neutral invertase 8; test: pulldown on amylose magnetic beads with GC-TOF MS; ITC titration; assay type: binding; details: 50 mM potassium phosphate pH 6.4, 25 °C; OsNIN8m, retains residual sucrose hydrolysis
[3] = biological target: T3, OsNIN8 (MBP-OsNIN8), neutral invertase 8; test: ITC incremental titration; assay type: binding; details: 25 °C, 0.1 mM protein, 10 mM sucrose in syringe; catalytic-residue mutant
[4] = biological target: T4, OsNIN8 (MBP-OsNIN8), neutral invertase 8; test: ITC incremental titration; assay type: binding; details: 25 °C, 0.1 mM protein, 10 mM sucrose in syringe; catalytic-residue mutant
purified protein = substrate: OC[C@H]1O[C@@](CO)(O[C@H]2O[C@H](CO)[C@@H](O)[C@H](O)[C@H]2O)[C@@H](O)[C@@H]1O; test: purified protein; assay type: biochemical, Oryza sativa; details: 50 mM potassium phosphate pH 6.4, fit over 0-20 mM sucrose (substrate inhibition above 20 mM)

Molecule | ITC incremental titration [1] | pulldown on amylose magnetic beads with GC-TOF MS; ITC titration [2] | ITC incremental titration [3] | ITC incremental titration [4] | Km (purified protein) [µM]
OC[C@H]1O[C@@](CO)(O[C@H]2O[C@H](CO)[C@@H](O)[C@H](O)[C@H]2O)[C@@H](O)[C@@H]1O [Sucrose] | all had not hydrolytic activity on sucrose, showed their bindings to sucrose were exotherm | OsNIN8m bound more sucrose than OsNIN8 did | all had not hydrolytic activity on sucrose, showed their bindings to sucrose were exotherm | all had not hydrolytic activity on sucrose, showed their bindings to sucrose were exotherm | 
B1 |  |  |  |  | 2718 ± 347
